Results taken from paper PMC11078746 (Nature, 2024).

What was measured:
IGROV1 = assay: CFA 10-14 day clonogenic assay; format: cell-based; settings: Homo sapiens, IGROV-1
SNUC4 = assay: CFA 10-14 day clonogenic assay; format: cell-based; settings: Homo sapiens, SNU-C4
TOV21G = assay: 4 day proliferation assay (CellTiter-Glo); settings: Homo sapiens, 96 h, read-out: 4 day assay GI50
TGBC11TKB = assay: 4 day proliferation assay (CellTiter-Glo); settings: Homo sapiens, 96 h, read-out: 4 day assay GI50
SW48 xenografts = assay: SW48 xenograft efficacy, HRO761, irinotecan and combination; format: in vivo, mouse
Description: All animal studies were conducted in accordance with ethics and procedures covered by permit BS-2275 and BS-1975 issued by the Kantonales Veterinäramt Basel-Stadt and in strict adherence to guidelines of the Eidgenössisches Tierschutzgesetz and the Eidgenössische Tierschutzverordnung, Switzerland. All animal studies were approved by the internal ethics committee. All animals had access to food and water ad libitum and were identified with transponders. They were housed in a specific-pathogen-free facility in IVC racks under a 12 h–12 h light–dark cycle. To establish cell-line-derived xenograft models, 6–7-week-old female athymic nude (Crl:NU(NCr)-Foxn1^nu) or SCID-BEIGE (CB17.Cg-PrkdcscidLystbg-J/Crl) mice from Charles River were engrafted subcutaneously with 5 million tumour cells in HBSS (H6648, Sigma-Aldrich). For SNU-407, Lovo, IM95, RL95.2, Ishikawa and IGROV-1, the cells were concentrated in 50% Matrigel (354234, Corning). Patient-derived xenografts were induced and expanded by transplantation as previously described. […] For the efficacy experiment, mice were randomized into groups (n = 5–6) for a mean tumour size of 100–150 mm^3. […] Blood samples were collected on day 7 and 91. […] Tumour responses are reported with the measures of tumour volumes from the treatment start. […] Animals were randomized (n = 3) and tumour samples were collected at 0, 1, 4, 8 and 24 h on the first day and then collected 4 h after the last treatment on day 3, 8, 10, 14 (including a 24 h timepoint), 17 and 21. Tumours were excised, weighed, either frozen in liquid nitrogen and cryogenic dry pulverized with the CryoPrep system (model CP-02, Covaris) or processed to FFPE after fixation. […] On day 12, blood samples were collected for PK analysis. On the last day (3 h after the last treatment), tumours were excised, weighed, frozen in liquid nitrogen and cryogenic dry pulverized for PD analysis.

HEC59 [1] = assay: 4 day proliferation assay (CellTiter-Glo); settings: Homo sapiens, 96 h, read-out: 4 day assay GI50
NUGC3 = assay: CFA 10-14 day clonogenic assay; format: cell-based; settings: Homo sapiens, NUGC-3
SNGM = assay: 4 day proliferation assay (CellTiter-Glo); settings: Homo sapiens, 96 h, read-out: 4 day assay GI50
HEC59 [2] = assay: CFA 10-14 day clonogenic assay; format: cell-based; settings: Homo sapiens
Ishikawa = assay: CFA 10-14 day clonogenic assay; format: cell-based; settings: Homo sapiens
HEC151 = assay: 4 day proliferation assay (CellTiter-Glo); settings: Homo sapiens, 96 h, read-out: 4 day assay GI50

CCc1c(N2CCN(C(=O)c3ncnc(C)c3O)CC2)c(=O)n2nc(C3=CCOCC3)nc2n1CC(=O)Nc1ccc(C(F)(F)F)cc1Cl [HRO761]
GI50 (IGROV1): 0.473 µM
GI50 (SNUC4): 0.035 µM
GI50 (TOV21G): ≥ 10 µM
GI50 (TGBC11TKB): 0.178 µM
Mean TVol (mm3) (SW48 xenografts; HRO761 20mg/kg, day 0 post 1st dose): 247.56 mm3
Mean TVol (mm3) (SW48 xenografts; HRO761 20mg/kg, day 7 post 1st dose): 408.23 mm3
Mean TVol (mm3) (SW48 xenografts; HRO761 20mg/kg, day 14 post 1st dose): 343.04 mm3
Mean TVol (mm3) (SW48 xenografts; HRO761 20mg/kg, day 21 post 1st dose): 353.40 mm3
Mean TVol (mm3) (SW48 xenografts; HRO761 20mg/kg, day 28 post 1st dose): 598.05 mm3
Mean TVol (mm3) (SW48 xenografts; HRO761 20mg/kg, day 35 post 1st dose): 1006.91 mm3
Mean TVol (mm3) (SW48 xenografts; HRO761 20mg/kg, day 4 post 1st dose): 324.64 mm3
Mean TVol (mm3) (SW48 xenografts; HRO761 20mg/kg, day 11 post 1st dose): 389.58 mm3
Mean TVol (mm3) (SW48 xenografts; HRO761 20mg/kg, day 18 post 1st dose): 304.90 mm3
Mean TVol (mm3) (SW48 xenografts; HRO761 20mg/kg, day 25 post 1st dose): 411.31 mm3
Mean TVol (mm3) (SW48 xenografts; HRO761 20mg/kg, day 32 post 1st dose): 799.70 mm3
Mean TVol (mm3) (SW48 xenografts; HRO761 40mg/kg, day 0 post 1st dose, n=6): 170.74 mm3
Mean TVol (mm3) (SW48 xenografts; HRO761 40mg/kg, day 3 post 1st dose, n=6): 266.92 mm3
Mean TVol (mm3) (SW48 xenografts; HRO761 40mg/kg, day 7 post 1st dose, n=6): 238.47 mm3
Mean TVol (mm3) (SW48 xenografts; HRO761 40mg/kg, day 10 post 1st dose, n=6): 242.34 mm3
Mean TVol (mm3) (SW48 xenografts; HRO761 40mg/kg, day 14 post 1st dose, n=6): 187.67 mm3
Mean TVol (mm3) (SW48 xenografts; HRO761 40mg/kg, day 17 post 1st dose, n=6): 156.98 mm3
Mean TVol (mm3) (SW48 xenografts; HRO761 40mg/kg, day 21 post 1st dose, n=6): 121.57 mm3
Mean TVol (mm3) (SW48 xenografts; HRO761 40mg/kg, day 24 post 1st dose, n=6): 71.41 mm3
Mean TVol (mm3) (SW48 xenografts; HRO761 40mg/kg, day 28 post 1st dose, n=6): 43.54 mm3
Mean TVol (mm3) (SW48 xenografts; HRO761 40mg/kg, day 31 post 1st dose, n=6): 43.20 mm3
Mean TVol (mm3) (SW48 xenografts; HRO761 40mg/kg, day 35 post 1st dose, n=6): 52.04 mm3
Mean TVol (mm3) (SW48 xenografts; HRO761 40mg/kg, day 38 post 1st dose, n=6): 63.12 mm3
Mean TVol (mm3) (SW48 xenografts; HRO761 40mg/kg, day 43 post 1st dose, n=6): 108.93 mm3
Mean TVol (mm3) (SW48 xenografts; HRO761 40mg/kg, day 46 post 1st dose, n=6): 106.14 mm3
Mean TVol (mm3) (SW48 xenografts; HRO761 40mg/kg, day 49 post 1st dose, n=6): 165.61 mm3
Mean TVol (mm3) (SW48 xenografts; HRO761 40mg/kg, day 52 post 1st dose, n=6): 180.62 mm3
Mean TVol (mm3) (SW48 xenografts; HRO761 40mg/kg, day 56 post 1st dose, n=6): 250.37 mm3
Mean TVol (mm3) (SW48 xenografts; HRO761 40mg/kg, day 59 post 1st dose, n=6): 307.84 mm3
Mean TVol (mm3) (SW48 xenografts; HRO761 40mg/kg, day 63 post 1st dose, n=6): 385.98 mm3
Mean TVol (mm3) (SW48 xenografts; HRO761 40mg/kg, day 67 post 1st dose, n=6): 504.27 mm3
Mean TVol (mm3) (SW48 xenografts; HRO761 40mg/kg, day 70 post 1st dose, n=6): 521.42 mm3
Mean TVol (mm3) (SW48 xenografts; HRO761 40mg/kg, day 73 post 1st dose, n=6): 687.64 mm3
GI50 (HEC59 [1]): ≥ 10 µM
GI50 (NUGC3): ≥ 10 µM
GI50 (SNGM): ≥ 10 µM
GI50 (HEC59 [2]): 0.133 µM
GI50 (Ishikawa): 0.051 µM
GI50 (HEC151): ≥ 10 µM
